# From PubChem BioAssay (NCI)
# “And” between values parts separate entries of the source, which are not always exact repeats. Equal entries are not always repeated.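 Results reflect a 48-hour exposure of cells in 96-well plates to compound at five concentrations. The concentration for 50% growth inhibition is given as GI50. The concentration for full growth arrest is given as TGI.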
# Assays:
# Assay in all cases: NCI-60 cell line screen, 48 h
# [1] = test system: CAKI-1 renal
# [2] = test system: MOLT-4 leukemia
# [3] = test system: M14 melanoma
# [4] = test system: K-562 leukemia
# [5] = test system: RXF 393 renal
# [6] = test system: EKVX NSCLC
# [7] = test system: HOP-92 NSCLC
# [8] = test system: IGROV1 ovarian
# [9] = test system: OVCAR-3 ovarian
# [10] = test system: BT-549 breast
SMILES,TGI [1] [µM],TGI [2] [µM],TGI [3] [µM],TGI [4] [µM],TGI [5],TGI [6] [µM],TGI [7],TGI [8] [µM],TGI [9] [µM],GI50 [1] [µM],GI50 [10] [µM],TGI [10] [µM],GI50 [2] [µM],GI50 [9] [µM],GI50 [3] [µM],GI50 [4] [µM],GI50 [5],GI50 [6],GI50 [8] [µM],GI50 [7]
COC(=O)C(=O)C(C(=O)C(=O)Nc1cc(C)ccc1C)c1nc2ccc(C(=O)c3ccccc3)cc2[nH]c1=O (stereo not given),> 100,> 100,> 100,> 100,> 100 µM,> 100,91.8 µM,> 100,–,–,–,–,–,–,–,–,–,–,–,–
CCOC(=O)C(C(O)c1ccc([N+](=O)[O-])cc1)P(=O)(OCC)OCC (stereo not given),> 100,> 100,> 100,> 100,> 100 µM,> 100,99.5 µM,> 100,> 100,–,–,–,–,–,–,–,–,–,–,–
CCc1cccc(C)c1NC(=S)NC(=O)c1ccccc1C(=O)NC(=S)Nc1c(C)cccc1CC,> 100,> 100,> 100,> 100,> 100 µM,> 100,65.4 µM,> 100,80.9,–,–,–,–,–,–,–,–,–,–,–
[O-]c1c2c(nn1-c1ccc(Cl)cc1)c1ccccc1c[n+]2Cc1ccccc1,> 100,> 100,> 100,> 100,79.5 µM,> 100,–,> 100,> 100,–,–,–,–,–,–,–,–,–,–,–
CCOCc1cc(=O)c2c(OC)cc3c(c2o1)CCC(C)(C)O3,–,> 100,> 100,> 100,> 100 µM,> 100,> 100 µM,> 100,> 100,–,–,–,–,–,–,–,–,–,–,–
COC1=CC(=O)c2nc(Cl)ccc2C1=O,3.74,7.77,3.52,> 100,2.97 µM,3.53,–,3.54,3.19,1.91,2.54,6.42,0.807,1.79,1.92,2.98,1.58 µM,1.78 µM,1.86,–
C/C(=N\NC(=O)CC(=O)N(C(=O)c1ccc(Cl)cc1)c1ccc(C)cc1)c1ccccc1O,> 100,> 100,> 100,> 100,> 100 µM,> 100,–,> 100,> 100,–,–,–,–,–,–,–,–,–,–,–
c1ccc(N/N=C2\NN=C(c3ccccc3)CS2)cc1,8.32,34.1,24.8,25.8,25.1 µM,37.4,31.9 µM,32.3,50.9,–,–,–,–,–,–,–,–,–,–,–
CCCCN(CCCC)CCCn1cnc2ncccc2c1=O,> 100,> 100,> 100,> 100,> 100 µM,> 100,> 100 µM,> 100,> 100,–,–,–,–,–,–,–,–,–,–,–
COC(=O)/C(=N\NC(N)=O)C(C(=O)C=C(C)C)C(=O)C(=O)Nc1ccc(Cl)c(Cl)c1 (stereo not given),> 100,> 100,> 100,> 100,> 100 µM,> 100,–,> 100,> 100,–,–,–,–,–,–,–,–,–,–,–
[CH3][Sn]([CH3])([CH3])[O][N+](=O)[O-],> 10,> 10,> 10,7.39,9.73 µM,> 10,> 10 µM,> 10,> 10,4.24,–,–,3.2,5.06,6.33,2.63,2.19 µM,> 10 µM,2.39,3.39 µM
COc1ccc(CCc2cc(OC)c(O)c(OC)c2)cc1,> 100,> 100,> 100,> 100,–,> 100,> 100 µM,> 100,> 100,–,–,–,–,–,–,–,–,–,–,–
CC(C)C1N2CCCCC2[C@@H]2c3[nH]c4ccccc4c3CCN12 (stereo not given in full),> 100,> 100,> 100,> 100,> 100 µM,> 100,> 100 µM,> 100,> 100,–,–,–,–,–,–,–,–,–,–,–
c1ccc2c(NCCCCCCNc3cccc4ccccc34)cccc2c1,> 100,> 100,> 100,> 100,–,> 100,> 100 µM,> 100,> 100,–,–,–,–,–,–,–,–,–,–,–
O=C1C2C3C=CC(C2C(=O)N1CN1CCSCC1)C1C2C(=O)N(CN4CCSCC4)C(=O)C2C31 (stereo not given),> 100,> 100,> 100,> 100,> 100 µM,> 100,> 100 µM,> 100,> 100,–,–,–,54.2,–,–,–,–,–,–,–
CCCCCCCC(=O)[O][Hg][CH2]C1COC([CH2][Hg][O]C(=O)CCCCCCC)CO1 (stereo not given),–,> 100,30,> 100,32.5 µM,66.4,17.1 µM,38.3,14.8,–,11.1,23.1,2.26,4.22,16.4,2.09,18.5 µM,30.8 µM,18,5.85 µM
COc1cc(/C=C2/C(=O)N(C(=O)OCc3ccccc3)C(Cc3cc(OC)c(OC)c(C)c3OC)C(=O)N2Cc2ccccc2)c(OC)c(C)c1OC (stereo not given),> 100,> 100,> 100,> 100,> 100 µM,> 100,> 100 µM,> 100,> 100,–,–,–,–,–,–,–,–,–,–,–
O=c1cc(-c2ccccc2)[nH]c2cc(Cl)ccc12,11.4,15.9,> 100,21.2,1.08 µM,> 100,57.5 µM,> 100,–,–,–,–,–,–,–,–,–,–,–,–
Cn1c2ccccc2c2c(=O)n(CCCC(=O)OC(=NC3CCCCC3)NC3CCCCC3)c3c(-c4ccccc4)nnn3c21,> 100,> 100,> 100,> 100,> 100 µM,> 100,–,94.4,> 100,> 100,72,> 100,> 100,> 100,> 100,> 100,62.8 µM,> 100 µM,15.4,–
Cc1nccc2c3ccc(OCc4cn(-c5ccc(Cl)cc5)nn4)cc3n(CC(C)C)c12,–,6.54,13.9,> 33.3,11.8 µM,32.6,13.6 µM,18.7,> 33.3,–,1.51,7.12,1.14,5.15,1.61,0.992,2.85 µM,2.14 µM,4.99,1.19 µM
CCOC(=O)c1cccnc1C(OC(C)=O)OC(C)=O,> 100,> 100,> 100,> 100,> 100 µM,> 100,> 100 µM,> 100,> 100,–,–,–,–,–,–,–,–,–,–,–

SMILES,TGI [1] [µM],TGI [2] [µM],TGI [3] [µM],TGI [4] [µM],TGI [5],TGI [6] [µM],TGI [7],TGI [8] [µM],TGI [9] [µM],GI50 [1] [µM],GI50 [10] [µM],TGI [10] [µM],GI50 [2] [µM],GI50 [9] [µM],GI50 [3] [µM],GI50 [4] [µM],GI50 [5],GI50 [6],GI50 [8] [µM],GI50 [7]
CCOP1(=O)C=C(C)C(=C(Cl)Cl)C(C)=C1 (stereo not given),49.3,42.9,24.6,16.3,30.7 µM,38.3,–,90.9,64.2,–,–,–,–,–,10.7,–,–,–,–,–
Cc1ccc(NC(=O)OCC(COc2ccc(Cl)cc2Cl)OC(=O)Nc2ccc(C)cc2)cc1 (stereo not given),> 100,–,> 100,–,> 100 µM,> 100,> 100 µM,> 100,> 100,–,–,–,–,–,–,–,–,–,–,–
CCN(CC)CCn1c2ccccc2c(=O)c2c(OC)ccc(OC)c21,> 100,> 100,> 100,> 100,81.5 µM,> 100,> 100 µM,–,> 100,–,–,–,–,–,–,–,–,–,–,–
CC1CC[P+](c2ccccc2)(c2ccccc2)CC1,–,> 100,> 100,> 100,> 100 µM,> 100,–,> 100,> 100,–,–,–,–,–,–,–,–,–,–,–
CCOC1CC2OC(=O)C1C=C2C(=O)OC (stereo not given),40,48.8,38.6,83.3,–,> 100,73.1 µM,> 100,75.1,–,–,–,–,–,–,–,–,–,–,–
COc1cc(/C=C2\C[C@H]3[C@@H]4CC=C5C[C@@H](OC(C)=O)CC[C@]5(C)[C@H]4CC[C@]3(C)[C@H]2OC(C)=O)ccc1OCCN1CCCC1,25.6,> 50,30.4,12.6,30.8 µM,–,13.4 µM,> 50,23.6,12,–,–,10.7,10.9,8.56,4,14.6 µM,–,19.3,5.45 µM
O=c1c(Cl)cc2nc3ccccc3sc-2c1Cl,37.8,> 100,37.2,> 100,32.5 µM,14.9,–,28.1,5.93,–,–,24.6,–,–,–,–,–,–,–,–
COc1ccc2nc(NC(=O)C(=O)NNC(=O)c3ccncc3)sc2c1,> 100,–,> 100,> 100,> 100 µM,> 100,> 100 µM,> 100,> 100,–,–,–,–,–,–,–,–,–,–,–
C[Si](C)(C)C(Sc1ccccc1)(Sc1ccccc1)Sc1ccccc1,> 100,> 100,–,> 100,> 100 µM,> 100,94.1 µM,–,–,–,–,–,–,–,–,–,–,–,–,–
O=C1NC(c2cccc(OCc3ccccc3)c2)Nc2ccccc21 (stereo not given),> 32.8,2.77,38.8,35.6,–,> 54,> 100 µM,93.7,0.558,–,–,–,–,–,–,–,–,–,–,–
C1C[OH+]CC[OH+]CCNCC[OH+]CC[OH+]CCN1.Cl.[Cl-].[Pt+4],> 100,> 100,> 100,> 100,4.13 µM,> 100,> 100 µM,> 100,–,> 100,–,–,> 100,–,> 100,> 100,1.66 µM,> 100 µM,> 100,> 100 µM
CN1CCN(Cc2cc(NC(=O)c3cccc(C#Cc4cccc5[nH]nc(N)c45)c3)cc(C(F)(F)F)c2)CC1,3.06,–,2.9,–,2.83 µM,3.26,2.63 µM,4.07,3.56,1.68,1.97,3.62,–,1.92,1.35,–,1.46 µM,1.75 µM,2.05,1.24 µM
Cn1cnc([N+](=O)[O-])c1Sc1nccc(=O)[nH]1,> 100,> 100,> 100,> 100,–,> 100,> 100 µM,> 100,> 100,–,–,–,–,–,–,–,–,–,–,–
CCOC(=O)C(=O)Nc1ccccc1C(C)C,> 100,> 100,> 100,> 100,–,> 100,> 100 µM,> 100,> 100,–,–,–,–,–,–,–,–,–,–,–
CCCCCCCCCCCCCB(O)O,–,–,> 100,–,> 100 µM and 73.7 µM,> 100,> 100 µM and 82.9 µM,> 100,> 100,–,–,–,–,–,–,–,> 100 µM and 29.5 µM,> 100 µM and 45.5 µM,–,> 100 µM and 25.1 µM
COC(=O)C(/C(=N\NC(N)=S)C(=O)Nc1ccccc1[N+](=O)[O-])c1cnc2ccccc2n1 (stereo not given),> 100,> 100,> 100,> 100,> 100 µM,> 100,> 100 µM,> 100,–,–,–,–,–,–,–,–,–,–,–,–
C=CCN(N=O)C(=O)NCCCCC(NC(C)=O)C(=O)NCc1ccccc1 (stereo not given),> 100,> 100,> 100,> 100,> 100 µM,> 100,> 100 µM,> 100,> 100,–,–,–,–,–,–,–,–,–,–,–
O=C(O)Cc1cccc2c(=O)c3cccc([N+](=O)[O-])c3oc12,> 100,> 100,> 100,> 100,> 100 µM,> 100,–,> 100,> 100,–,–,> 100,–,–,–,–,–,–,–,–
Cc1ccccc1C1CC(c2ccccc2)=NO1 (stereo not given),> 100,> 100,> 100,> 100,–,> 100,> 100 µM,> 100,> 100,–,–,–,–,–,–,–,–,–,–,–
C=C(CCCO)[C@@H]1CC[C@@](C)(O)[C@H]1C,> 100,> 100,–,> 100,> 100 µM,> 100,–,> 100,> 100,–,–,–,–,–,–,–,–,–,–,–
C/C(=N/Nc1nc(C)cc(=O)[nH]1)C(=O)O,> 100,> 100,> 100,> 100,> 100 µM,> 100,–,> 100,> 100,–,–,> 100,–,–,–,–,–,–,–,–
